This note sets out measurements from US12497465B2, “Combination of antibody-drug conjugate and tubulin inhibitor” (priority 2018, dated 2025).

Counter-ions that a name gives are not always drawn. Like-named read-outs stand apart in the source and are kept apart here.

Test [1] concerns Human breast cancer cell line JIMT-1. As to the kind of experiment: Antitumor study (2): subcutaneously transplanted JIMT-1 cells in nude mice. The test is classed as in vivo. The conditions noted are these: JIMT-1 xenograft, ADC (1) 10 mg/kg iv Day 0, paclitaxel 15 mg/kg iv Day 0, 7, 14, eribulin mesylate 0.8 mg/kg iv Day 0, 3.
Description: (§1) Measurement and calculation formula: In all studies, the major axis and minor axis of tumors were measured twice a week with an electronic digital caliper (CD15-CX, Mitutoyo Corp.), and the tumor volume (mm^3) was calculated. The calculation formula is as shown below. Tumor volume(mm^3)=½×Major axis(mm)×[Minor axis (mm)]^2
(§2) Paclitaxel was dissolved with cremophor and ethanol (1:1), diluted with physiological saline, and then intravenously administered to the tail vein in a fluid volume of 10 or 20 mL/kg. Eribulin mesylate was diluted with physiological saline, and intravenously administered to the tail vein in a fluid volume of 10 mL/kg.
Human breast cancer cell line JIMT-1, which was purchased from DSMZ (Deutsche Sammlung von Mikroorganismen und Zellkulturen GmbH), was suspended into physiological saline, subcutaneously transplanted at 5×10^6 cells into the right side of female nude mice, and the mice were randomly grouped 13 days after the transplantation (Day 0). […] Paclitaxel was intravenously administered to the tail vein at a dose of 15 mg/kg on Day 0, Day 7 and Day 14. Eribulin mesylate was intravenously administered to the tail vein at a dose of 0.8 mg/kg on Day 0 and Day 3. Single administration groups of each drug, a combined administration group, and a solvent administration group as a control group were set up.
In test [2] the test system is Human gastric cancer cell line NCI-N87. As to the kind of experiment: Antitumor study (3): subcutaneously transplanted NCI-N87 cells in nude mice. The test is classed as in vivo. The conditions noted are these: NCI-N87 xenograft, ADC (1) 1 mg/kg iv Day 0, paclitaxel 15 mg/kg iv Day 0, 7, eribulin mesylate 0.4 mg/kg iv Day 0, 4.
Description: as §1, §2
Human gastric cancer cell line NCI-N87, which was purchased from ATCC (American Type Culture Collection), was suspended into physiological saline, subcutaneously transplanted at 1×10^7 cells into the right side of female nude mice, and the mice were randomly grouped 6 days after the transplantation (Day 0). […] Paclitaxel was intravenously administered to the tail vein at a dose of 15 mg/kg on Day 0 and Day 7. Eribulin mesylate was intravenously administered to the tail vein at a dose of 0.4 mg/kg on Day 0 and Day 4. Single administration groups of each drug, a combined administration group, and a solvent administration group as a control group were set up.
For test [3], the system named is Human breast cancer cell line KPL-4. As to the kind of experiment: Antitumor study (1): subcutaneously transplanted KPL-4 cells in nude mice. The conditions noted are these: KPL-4 xenograft, BALB/c nude mice, last day of the study; ADC (1) […] iv Day 0; paclitaxel 15 mg/kg iv Day 0, 7; eribulin mesylate 0.8 mg/kg iv Day 0, 4. The test is classed as in vivo. An excerpt:
The calculation formula is as shown below.
Human breast cancer cell line KPL-4, which was obtained from Dr. Junichi Kurebayashi in Kawasaki Medical School [British Journal of Cancer, (1999) 79 (5/6).

For test [4], the system named is Human breast cancer cell line JIMT-1. The conditions noted are these: JIMT-1 xenograft, nude mice; ADC (2) 10 mg/kg iv Day 0, 7, 14; paclitaxel 15 mg/kg iv Day 0, 7.
Description: as §1
(§3) Paclitaxel was dissolved with cremophor and ethanol (1:1), diluted with physiological saline, and then intravenously administered to the tail vein in a fluid volume of 10 or 20 mL/kg.
Human breast cancer cell line JIMT-1, which was purchased from DSMZ, was suspended into physiological saline, subcutaneously transplanted at 5×10^6 cells into the right side of female nude mice, and the mice were randomly grouped 10 days after the transplantation (Day 0). […] Paclitaxel was intravenously administered to the tail vein at a dose of 15 mg/kg on Day 0 and Day 7. Single administration groups of each drug, a combined administration group, and a solvent administration group as a control group were set up.
For test [5], the system named is Human ovarian cancer cell line OV-90. As to the kind of experiment: Antitumor study (8): subcutaneously transplanted OV-90 cells in nude mice. The conditions noted are these: OV-90 xenograft, Day 17, ADC (3) 10 mg/kg iv Day 0, paclitaxel 15 mg/kg iv Day 0, 7, 14.
Description: as §1, §3
Human ovarian cancer cell line OV-90, which was purchased from ATCC, was suspended into Matrigel, subcutaneously transplanted at 2.5×10^6 cells into the right side of female nude mice, and the mice were randomly grouped 15 days after the transplantation (Day 0). […] Paclitaxel was intravenously administered to the tail vein at a dose of 15 mg/kg on Day 0, Day 7, and Day 14. Single administration groups of each drug, a combined administration group, and a solvent administration group as a control group were set up.
Test [6] relates to Human breast cancer cell line MDA-MB-453. As to the kind of experiment: Antitumor study (4): subcutaneously transplanted MDA-MB-453 cells in nude mice. The conditions noted are these: MDA-MB-453 xenograft, ADC (1) 0.5 mg/kg iv Day 0, paclitaxel 15 mg/kg iv Day 0, 7.
Description: as §3
Human breast cancer cell line MDA-MB-453, which was purchased from ATCC, was suspended into Matrigel basal membrane matrix (Matrigel), subcutaneously transplanted at 1×10^7 cells into the right side of female nude mice, and the mice were randomly grouped 7 days after the transplantation (Day 0). […] Paclitaxel was intravenously administered to the tail vein at a dose of 15 mg/kg on Day 0 and Day 7. Single administration groups of each drug, a combined administration group, and a solvent administration group as a control group were set up.
The subject of test [7] is Human lung cancer cell line NCI-H441. As to the kind of experiment: Antitumor study (6): subcutaneously transplanted NCI-H441 cells in nude mice. The conditions noted are these: NCI-H441 xenograft, ADC (1) 10 mg/kg iv Day 0, paclitaxel 15 mg/kg iv Day 0, 7.
Description: as §1, §3
Human lung cancer cell line NCI-H441, which was purchased from ATCC, was suspended into Matrigel, subcutaneously transplanted at 5×10^6 cells into the right side of female nude mice, and the mice were randomly grouped 7 days after the transplantation (Day 0). […] Paclitaxel was intravenously administered to the tail vein at a dose of 15 mg/kg on Day 0 and Day 7. Single administration groups of each drug, a combined administration group, and a solvent administration group as a control group were set up.
Test [8] has as its system Human gastric cancer cell line SNU-1. As to the kind of experiment: Antitumor study (5): subcutaneously transplanted SNU-1 cells in nude mice. The conditions noted are these: SNU-1 xenograft, ADC (1) 10 mg/kg iv Day 0, paclitaxel 15 mg/kg iv Day 0, 7.
Description: as §1, §3
Human gastric cancer cell line SNU-1, which was purchased from ATCC, was suspended into Matrigel, subcutaneously transplanted at 1×10^7 cells into the right side of female nude mice, and the mice were randomly grouped 28 days after the transplantation (Day 0). […] Paclitaxel was intravenously administered to the tail vein at a dose of 15 mg/kg on Day 0 and Day 7. Single administration groups of each drug, a combined administration group, and a solvent administration group as a control group were set up.

For orientation: TGI means how far tumour growth fell short of that in controls. As to `C=C1C[C@@H]2CC[C@@]34C[C@H]5O[C@H]6[C@@H](O3)[C@H]3O[C@H](CC[C@@H]3O[C@H]6[C@H]5O4)CC(=O)C[C@@H]3[C@@H](OC)[C@@H](C[C@H](O)CN)O[C@H]3C[C@H]3O[C@@H](CC[C@@H]1O2)C[C@@H](C)C3=C` [eribulin mesylate], the values for the TGI in test [1] and in test [2] were 73% and 64%, respectively. Moreover, in test [3], the “tumor growth inhibition (TGI)” value is listed as 91%.
As to `CC(=O)O[C@H]1C(=O)[C@@]2(C)[C@H]([C@H](OC(=O)c3ccccc3)[C@]3(O)C[C@H](OC(=O)[C@H](O)[C@@H](NC(=O)c4ccccc4)c4ccccc4)C(C)=C1C3(C)C)[C@]1(OC(C)=O)CO[C@@H]1C[C@@H]2O` [paclitaxel], the TGI in test [4] is listed as 36%; in test [5], 80%; in test [6], 96%; in test [1] it was 30%; in test [2], 50%; in test [7], 55%. In test [8], this molecule returned a TGI of 58%. Moreover, the “tumor growth inhibition (TGI)” value in test [3] amounted to 48%.
“antibody-drug conjugate (2): anti-HER3 antibody (SEQ ID NO: 3 and 4) conjugated to exatecan-derivative drug-linker via a thioether bond” yielded a TGI in test [4] of 69%.

B1: antibody-drug conjugate (3): anti-CDH6 antibody (SEQ ID NO: 11 residues 20-471, SEQ ID NO: 12 residues 21-233) conjugated to exatecan-derivative drug-linker via a thioether bond (conjugate, chains of the INN, looked up)
VH: EVQLVQSGAEVKKPGASVKVSCKASGYTFTRNFMHWVRQAPGQGLEWMGWIYPGDGETEYAQKFQGRVTITADTSTSTAYMELSSLRSEDTAVYYCARGVYGGFAGGYFDFWGQGTLVTVSS
VL: DIQMTQSPSSLSASVGDRVTITCKASQNIYKNLAWYQQKPGKAPKLLIYDANTLQTGVPSRFSGSGSGSDFTLTISSLQPEDFATYFCQQYYSGWAFGQGTKVEIK
modifications: exatecan-derivative drug-linker (deruxtecan)
Molecule B1 came in with a TGI in test [5] of 97%.
